# Legend:
# [1] = system: primary rat hepatocytes; assay: Synthesis of non-saponified and saponified lipids (14C-acetate incorporation) in hepatocytes; format: cell-based; conditions: 100 μM; 14C-acetate 2 hr; vs no compound control
# Procedure: A male Sprague-Dawley rat was anesthetized by administration of sodium pentobarbitol by intraparitoneal injection at 50 mg/kg. In situ perfusion of the liver was performed as follows. […] To digest the liver, DSC solution (6.7 mM KCl, 143 mM NaCl, 9.2 mM Na HEPES, 5 mM CaCl2-2H2O, 1.7 mM Fructose, 0.029 mM Phenol red, 0.2% BSA, 100 U/ml collagenase Type I, 93 U/ml Hyaluronidase, 160 BAEE/ml trypsin inhibitor, pH 7.5) was perfused through the liver at a flow rate of 30 ml/min for 6 minutes at a temperature of 37° C. After digestion, cells were dispersed in a solution of DMEM-(DMEM containing 2 mM GlutMax-1, 0.2% BSA, 5% FBS, 12 nM insulin, 1.2 μM hydrocortisone) to stop the digestion process. The crude cell suspension was filtered through three layers of stainless steel mesh with pore sizes of 250, 106, and 75 μm respectively. Filtered cells were centrifuged at 50×g for two minutes and the supernatant discarded. The resulting cell pellet was resuspended in DMEM and centrifuged again. This final cell pellet was resuspended in DMEM+HS solution (DMEM containing 2 mM GlutMax-1, 20 nM delta-aminolevulinic acid, 17.4 mM MEM non-essential amino acids, 20% FBS, 12 nM insulin, 1.2 µM hydrocortisone) and plated to form monolayer cultures at a density of 100×10^3 cells/cm^2 on collagen coated culture dishes. Four hours after initial plating, media was changed to DMEM+(DMEM containing 2 mM GlutMax-1, 20 nM delta-aminolevulinic acid, 17.4 mM MEM non-essential amino acids, 10% FBS, 12 nM insulin, 1.2 μM hydrocortisone) and remained on cells overnight.
# To test the effect of illustrative compounds of the invention on synthesis rates of non-saponified and saponified lipids, the monolayer cultures were exposed to 1 μM of lovastatin or 100 μM Compound A, B, D, E or F in DMEM+ containing 1 μCi/ml ^14C-acetate. Control cells were exposed to the same media lacking lovastatin or the test compounds. All cells were exposed to 0.1% DMSO. Metabolic labeling with ^14C-acetate continued for 2 hr at 37° C. After labeling, cells were washed twice with 1 ml of PBS followed by lysing in 1 ml of deionized water. Cells were scraped from the dishes, transferred to glass tubes and sonicated. 2.5 ml of 2:1 chloroform/methanol mixture was added followed by 1.5 ml of Phosphate Buffered Saline (PBS). To correct for extraction efficiency in the upcoming extractions, 3000 dpm of ^3H-cholesterol was added to each tube. Tubes were shaken for 30 min. to extract lipids into the organic phase followed by centrifugation for 10 minutes at 1000×g to separate the organic and aqueous phases. The lower organic phase containing total lipids was removed and placed in a new tube. The organic solution was evaporated under N2. […]
# [2] = system: 3T3-L1 cells; assay: Insulin sensitization: 14C-acetate incorporation into lipids in 3T3-L1 preadipocytes; format: cell-based; conditions: preadipocytes treated 4 days; insulin-dependent (30 nM insulin); FIG. 20
# Procedure: The effects of Compound A on rate of differentiation of 3T3-L1 cells from a “committed pre-adipocyte” to an “adipocyte” phenotype in the absence or presence of insulin is tested. The differentiation of 3T3-L1 cells to an adipocyte-like phenotype is highly dependent upon insulin. […] In this assay the degree of differentiation was a reflection of the rate of lipid synthesis, as measured through incorporation of ^14C-acetate over 2 hours.
# 3T3-L1 stem cells were induced to differentiate with dexamethasone, isobutylmethylxanthine and insulin (Green and Kehinde, 1975, Cell 5:19-27). Cells were plated in Dulbecco's modified Eagle medium containing 10% calf serum and grown to confluence. Cells were then refreshed with 10% fetal calf serum, and treated with 0.5 mM isobutylmethylxanthine and 250 nM dexamethasone, but no additional insulin, for 48 hours. […]
# The preadipocytes were then treated for 4 days with various concentrations of Compound A in 5% fetal calf serum in Dulbecco's modified Eagles medium, with or without a submaximal concentration of insulin (30 nM). […] Cell were then washed with phosphate buffered saline, lysed with 0.1 N NaOH, and ^14C-acetate incorporation into lipids was determined using phase separation and liquid scintillation counting.
smiles,measurement,setting,value
"CC(C)(CO)CCCCOCCCCC(C)(C)CO [Compound A, 6-(6-hydroxy-5,5-dimethylhexyloxy)-2,2-dimethyl-hexan-1-ol]",reduction of the rate of non-saponified lipid synthesis,[1],at least 85%
same,reduction of the rate of saponified lipid synthesis,[1],at least 85%
same,increase of 14C-acetate incorporation into lipids,[2],approximately 40%

# Source: patent US6506799B1, “Methods of treating cardiovascular diseases, dyslipidemia, dyslipoproteinemia, and hypertension with ether compounds” (Esperion Therapeutics, Inc., priority 1999, dated 2003)
